Source: patent US12358919B2, “Antibacterial compounds” (Universita' degli Studi di Siena, priority 2019, dated 2025)
Where two headings read alike, the source gives them in different places.

Tests used:
Type in all cases: cell-based
[1] = tested on: Bacillus subtilis ATCC 6633; assay: MIC, broth microdilution (direct antibacterial activity); details: ATCC6633, B. subtilis ATCC 6633, compound alone, 18-24 h, read-out: MIC
Method: (§1) Growth inhibition or killing of bacteria was investigated using conventional methods widely described in the scientific literature. Parameters such as the Minimum Inhibitory Concentration (MIC) were determined as described in Clinical Laboratory Standard Institute (CLSI) document M07 “Methods for Dilution Antimicrobial Susceptibility Tests for Bacteria That Grow Aerobically, 11th Edition” (2018). Synergistic activity of the compounds described in the present specification were determined by measuring the variation of the MIC's compound in the absence and presence of a sub-inhibitory concentration of a suitable antibacterial agent, such as polymyxin E1. Furthermore, the Fractional Inhibitory Concentrations (FICs) were measured using a chequerboard analysis to determine the average FIC index (FICI), whose value is known to characterize the interaction between two compounds and/or drugs (≤0.5, synergistic interaction; >0.5 and <2, no interaction, additive effect; ≥2, antagonistic interaction). Furthermore, the selectivity of the compounds was investigated by measuring their cytotoxic effect on mammalian cell lines (e.g. HeLa cells).
(§2) The MIC values were determined using the broth microdilution method as described in document M07 using Mueller-Hinton broth as culture medium and an initial bacterial inoculum size of 5×10^5 CFU/mL, with a final volume of 100 μL per well in a 96-well microplate. Bacterial strains were Bacillus subtilis ATCC 6633, Enterococcus faecalis ATCC 29212, Streptococcus pyogenes ATCC 12344 and Staphylococcus aureus ATCC 25923. The tested compound concentration ranged from 512 to 0.25 mg/L. Plates were incubated for 18-24 hours at 35±2° C. prior to results analysis.

[2] = tested on: Enterococcus faecalis ATCC 29212; assay: as above; details: ATCC29212, E. faecalis ATCC 29212, compound alone, 18-24 h, read-out: MIC
Method: as §1, §2

[3] = tested on: Staphylococcus aureus ATCC 25923; assay: as above; details: ATCC25923, S. aureus ATCC 25923, compound alone, 18-24 h, read-out: MIC
Method: as §1, §2

[4] = tested on: Streptococcus pyogenes ATCC 12344; assay: as above; details: ATCC12344, S. pyogenes ATCC 12344, compound alone, 18-24 h, read-out: MIC
Method: as §1, §2

[5] = tested on: Acinetobacter baumannii ATCC 17978; assay: microbe, parasite or virus in culture; details: for Potentiation fold: ratio MICcompound/MICcompound+polymyxin E; for MIC in presence of colistin: with 0.25xMIC polymyxin E1 (0.25 mg/L); for MIC: Acinetobacter baumannii, ATCC17978
Method: as §1
(§3) Several methods were used to investigate the synergistic activity of the compounds, including (a) the determination of the MIC in the presence of a sub-inhibitory concentration of a suitable antibacterial agent, (b) the determination of the average FICI using a chequerboard analysis and (c) the time-kill curve analysis of a suitable agent (at a sub-inhibitory concentration) in the absence and presence of the pyrazolo[4,3-b]pyridin-6-carboxamide compound at a fixed concentration of 2 or 8 mg/L.
(§4) The MIC of the compound was determined alone and in the presence of a fixed and sub-inhibitory concentration of a suitable antibacterial agent of the polymyxin class, such as polymyxin E1 (colistin). The potentiation fold was computed as the ratio MICcompound/MICcompound+polymyxin E. Tested organisms included Escherichia coli CCUG^TKlebsiella pneumoniae ATCC 13833 and Acinetobacter baumannii ATCC 17978, which show a colistin MIC of 0.5, 0.5 and 1 mg/L, respectively.

Escherichia coli CCUG^T = assay: microbe, parasite or virus in culture; details: for Potentiation fold: ratio MICcompound/MICcompound+polymyxin E; for MIC in presence of colistin: with 0.25xMIC polymyxin E1 (0.12 mg/L); for MIC: Escherichia coli
Method: as §1, §3, §4

[6] = tested on: Klebsiella pneumoniae ATCC 13833; assay: microbe, parasite or virus in culture; details: for Potentiation fold: ratio MICcompound/MICcompound+polymyxin E; for MIC in presence of colistin: with 0.25xMIC polymyxin E1 (0.12 mg/L); for MIC: Klebsiella pneumoniae, ATCC13833
Method: as §1, §3, §4

[7] = A. baumannii ATCC 17978, compound alone, read-out: MIC
[8] = E. coli CCUG^T, compound alone, read-out: MIC
[9] = K. pneumoniae ATCC 13833, compound alone, read-out: MIC

| Structure (SMILES) | MIC [1] [µg/mL] | MIC [2] [µg/mL] | MIC [3] [µg/mL] | MIC [4] [µg/mL] | Potentiation fold ([5]; A. baumannii ATCC 17978) | MIC in presence of colistin ([5]; A. baumannii ATCC 17978) [µg/mL] | MIC [5, 7] [µg/mL] | Potentiation fold (Escherichia coli CCUG^T; E. coli CCUG^T) | MIC in presence of colistin (Escherichia coli CCUG^T; E. coli CCUG^T) [µg/mL] | MIC (Escherichia coli CCUG^T; [8]) [µg/mL] | Potentiation fold ([6]; K. pneumoniae ATCC 13833) | MIC in presence of colistin ([6]; K. pneumoniae ATCC 13833) [µg/mL] | MIC [6, 9] [µg/mL] | MIC [5] [µg/mL] | MIC (Escherichia coli CCUG^T) [µg/mL] | MIC [6] [µg/mL] |
| --- | --- | --- | --- | --- | --- | --- | --- | --- | --- | --- | --- | --- | --- | --- | --- | --- |
| CCCCn1c(=O)c(C(=O)NC(C)(C)C)c(O)c2nn(C)cc21 [Iaf, 4-(1-Butyl)-4,5-dihydro-N-(1,1-dimethylethyl)-7-hydroxy-2-methyl-5-oxo-2H-pyrazolo[4,3-b]pyridin-6-carboxamide] | 128 | 512 | 64 | 64 | ≥8 | 64 | > 512 | ≥16 | 32 | > 512 | ≥16 | 32 | > 512 |  |  |  |
| CCCCn1c(=O)c(C(=O)NC2CCCc3ccccc32)c(O)c2nn(C)cc21 (stereo not shown) [It, 4-(1-Butyl)-4,5-dihydro-7-hydroxy-2-methyl-5-oxo-N-(1,2,3,4-tetrahydro-1-naphthyl)-2H-pyrazolo[4,3-b]pyridin-6-carboxamide] | 32 | 64 | 32 | 64 | ≥32 | 16 | > 512 | ≥16 | 32 | > 512 | ≥32 | 16 | > 512 |  |  |  |
| CCCCn1c(=O)c(C(=O)NC2CCCC2)c(O)c2nn(C)cc21 [Iag, 4-(1-Butyl)-N-cyclopentyl-4,5-dihydro-7-hydroxy-2-methyl-5-oxo-2H-pyrazolo-[4,3-b]pyridin-6-carboxamide] |  |  |  |  | ≥4 | 128 | > 512 | ≥16 | 32 | > 512 | ≥8 | 64 | > 512 |  |  |  |
| CCCCCn1c(=O)c(C(=O)NC23CC4CC(CC(O)(C4)C2)C3)c(O)c2nn(CCO)cc21 [Io, 4,5-Dihydro-7-hydroxy-N-(1-hydroxyadamantan-3-yl)-2-(2-hydroxyethyl)-5-oxo-4-(1-pentyl)-2H-pyrazolo[4,3-b]pyridin-6-carboxamide] |  |  |  |  | ≥128 | 4 |  |  |  |  | ≥64 | 8 |  | > 512 | > 512 | > 512 |
| CCCn1c(=O)c(C(=O)NC23CC4CC(CC(C4)C2)C3)c(O)c2nn(CCOC(C)=O)cc21 [Ir, 2-(2-Acetoxyethyl)-N-(adamantan-1-yl)-4,5-dihydro-7-hydroxy-5-oxo-4-(1-propyl)-2H-pyrazolo[4,3-b]pyridin-6-carboxamide] |  |  |  |  | ≥16 | 32 |  | ≥8 | 64 |  | ≥8 | 64 |  | > 512 | > 512 | > 512 |
| CCCCn1c(=O)c(C(=O)NC2CCCCCCC2)c(O)c2nn(C)cc21 [Is, 4-(1-Butyl)-N-cyclooctyl-4,5-dihydro-7-hydroxy-2-methyl-5-oxo-2H-pyrazolo[4,3-b]pyridin-6-carboxamide] | 32 | 512 | 32 | 32 | ≥16 | 32 | > 512 | ≥16 | 32 | > 512 | ≥16 | 32 | > 512 |  |  |  |
| CCCCn1c(=O)c(C(=O)NC(C)(C)C)c(O)c2nn(CC)cc21 [Iw, 4-(1-Butyl)-4,5-dihydro-N-(1,1-dimethylethyl)-2-ethyl-7-hydroxy-5-oxo-2H-pyrazolo[4,3-b]pyridin-6-carboxamide] |  |  |  |  | ≥8 | 64 | > 512 | ≥32 | 16 | > 512 | ≥16 | 32 | > 512 |  |  |  |
| CCCCn1c(=O)c(C(=O)NC23CC4CC(CC(O)(C4)C2)C3)c(O)c2nn(C)cc21 [Ia, 4-(1-Butyl)-4,5-dihydro-7-hydroxy-N-(1-hydroxyadamantan-3-yl)-2-methyl-5-oxo-2H-pyrazolo[4,3-b]pyridin-6-carboxamide] |  |  |  |  | ≥16 | 32 |  | ≥16 | 32 |  | ≥8 | 64 |  | > 512 | > 512 | > 512 |
| CCCCn1c(=O)c(C(=O)N[C@@H](Cc2ccccc2)C(=O)OC(C)(C)C)c(O)c2nn(C)cc21 [Iad, 1,1-Dimethylethyl (S)-2-[4-(1-butyl)-4,5-dihydro-7-hydroxy-2-methyl-5-oxo-2H-pyrazolo[4,3-b]pyridin-6-carboxamido]-3-phenylpropanoate] | 32 | 128 | 256 | 64 | ≥4 | 128 | > 512 | ≥16 | 32 | > 512 | ≥16 | 32 | > 512 |  |  |  |
| CC(C)n1c(=O)c(C(=O)NC2CCCc3ccccc32)c(O)c2nn(C)cc21 (stereo not shown) [Iaa, 4,5-Dihydro-7-hydroxy-2-methyl-5-oxo-4-(2-propyl)-N-(1,2,3,4-tetrahydro-1-naphthyl)-2H-pyrazolo[4,3-b]pyridin-6-carboxamide] | 16 | 64 | 64 | 32 | ≥32 | 16 | > 512 | ≥32 | 16 | > 512 | ≥16 | 32 | > 512 |  |  |  |
| CCCCn1c(=O)c(C(=O)NCc2ccc(F)cc2)c(O)c2nn(C)cc21 [Iac, 4-(1-Butyl)-4,5-dihydro-N-[(4-fluorophenyl)methyl]-7-hydroxy-2-methyl-5-oxo-2H-pyrazolo[4,3-b]pyridin-6-carboxamide] | 64 | 64 | 128 | 32 |  |  |  |  |  |  |  |  |  |  |  |  |
| CCCCn1c(=O)c(C(=O)NC(c2ccccc2)c2ccccc2)c(O)c2nn(C)cc21 [Iu, 4-(1-Butyl)-4,5-dihydro-N-(diphenylmethyl)-7-hydroxy-2-methyl-5-oxo-2H-pyrazolo[4,3-b]pyridin-6-carboxamide] |  |  |  |  | ≥16 | 32 | > 512 | ≥8 | 64 | > 512 | ≥8 | 64 | > 512 |  |  |  |
